From PMC10780275, “Evaluation of Anti-Trypanosoma cruzi Activity of Chemical Constituents from Baccharis sphenophylla Isolated Using High-Performance Countercurrent Chromatography” (Molecules, 2023)
Where two headings read alike, the source gives them in different places.

What was measured:
T. cruzi amastigote = test: Activity against intracellular amastigotes of T. cruzi within infected macrophages (Giemsa, light microscope, 48 h); format: cell-based, Trypanosoma cruzi (Y strain); conditions: for EC50: Trypanosoma cruzi, Peritoneal macrophage, in Mus musculus, read-out: T. cruzi Amastigote EC50 (μM) ± SD
Description: The experimental animals were sourced from the animal breeding facility located at Instituto Adolfo Lutz in São Paulo State, Brazil. Peritoneal macrophages were extracted from female BALB/c mice for intracellular experiments, while male BALB/c mice were utilized to sustain T. cruzi. These animals were provided unlimited access to both water and food, residing in sterilized enclosures within a meticulously regulated environment. All procedures were previously approved by the Animal Ethics Commission of Instituto Adolfo Lutz.
(§1) NCTC cells (clone 929, ATCC) were cultured in RPMI-1640 supplemented with 10% of fetal bovine serum (FBS), at 37 °C within a 5% CO2-humidified incubator. To collect peritoneal macrophages, the abdominal cavity of female BALB/c mice was rinsed with an RPMI-1640 medium, containing 10% FBS. These macrophages were then cultured overnight at 37 °C in a 5% CO2-humidified incubator. Trypanosoma cruzi trypomastigotes (Y strain) were maintained within Rhesus monkey kidney epithelial cells (LLC-MK2) cells using an RPMI-1640 medium supplemented with 2% FBS, and the incubation took place at 37 °C with 5% CO2 and humidity.
The EC50 values for compounds 1–8 against intracellular amastigotes of T. cruzi were determined within infected macrophages. Macrophages, obtained as detailed in item 4.9, were seeded onto a 16-well chamber slide (NUNC plate, Thermo Fisher, Waltham, MA, USA) at a density of 1 × 10^5 cells per well. Subsequently, these cell cultures were incubated overnight at 37 °C in a humidified incubator containing 5% CO2. Trypomastigotes, previously derived from infected LLC-MK2 cells, underwent washing in an RPMI-1640 medium, were quantified, and were then employed to infect the macrophages at a concentration of 1 × 10^6 trypomastigotes per well. Following a 2 h infection period, any non-internalized trypomastigotes were eliminated by rinsing with an RPMI medium. The compounds were subsequently exposed to the infected macrophages for 48 h at 37 °C within a 5% CO2 environment. A range of serial dilutions (ranging from 30.00 to 1.87 μM) were used for the incubation of compounds, and benznidazole was utilized as the standard drug. At the final stage of the experiment, the chamber slides were fixed using MeOH and stained with Giemsa before being assessed under a light microscope (Thermo EVOS M5000).
(§2) The CC50 and EC50 values were derived through the analysis of sigmoidal dose–response curves using GraphPad Prism 6.0 software. The samples were subjected to duplicate testing, and the experiments were replicated a minimum of two times.

T. cruzi trypomastigote = test: Activity against trypomastigote forms of T. cruzi (resazurin viability, 24 h); format: cell-based, Trypanosoma cruzi (Y strain); conditions: trypomastigotes, serial dilutions 1.7 to 150 μM; for EC50: Trypanosoma cruzi, read-out: T. cruzi Trypomastigote EC50 (μM) ± SD
Experimental: as §1
Tests of the activity from compounds 1–8 against the trypomastigote form of T. cruzi was performed, according to procedures previously reported. Trypomastigotes, in a concentration of 1 × 10^6 parasites/well, were seeded in 96-well plates and incubated with the tested compounds, alongside the standard drug benznidazole, in serial dilutions ranging from 1.7 to 150 μM, for 24 h at 37 °C in a 5% CO2 incubator. Subsequently, 20 μL of 10% resazurin was added, in order to determine cell viability. Absorbance was read in a plate spectrofluorometer Filter Max F5 Multi-Mode Microplate Reader at 570 nm. Untreated cells were used as negative controls, and cells treated with benznidazole were used as positive controls. The 50% effective concentration (EC50) against trypomastigote forms was determined by the regression of a sigmoid dose–response curve expressed in μM.
as §2

[1] = Cytotoxicity against mammalian NCTC cells (MTT assay, 48 h); format: cell-based; conditions: mouse, NCTC murine fibroblasts, highest tested concentration 200 μM, read-out: NCTC Mammalian Cell CC50 (μM) ± SD
Experimental: as §1
The determination of CC50 (50% cytotoxic concentration) values for compounds 1–8 was conducted using NCTC cells (L929 clone). These cells were seeded at a density of 6 × 10^4 cells per well in 96-well plates (Thermo Fisher). The cells were then exposed to a series of compound dilutions, ranging from 200 to 1.56 µM, and incubated for 48 h at 37 °C within a 5% CO2-equipped incubator. The viability of the cells and CC50 values were determined using 3-(4,5-dimethylthiazol-2-yl)-2,5-diphenyltetrazolium bromide (MTT) assay. Subsequently, the absorbance was measured at 570 nm using the FilterMax F5 instrument from Molecular Devices. The selectivity index (SI) was determined as the ratio between the CC50 against NCTC cells and the EC50 against trypomastigotes or amastigotes.
as §2

[2] = intracellular amastigotes in BALB/c peritoneal macrophages, serial dilutions 30.00 to 1.87 μM
[3] = NCTC cells (clone L929) fibroblasts

| SMILES | T. cruzi Amastigote EC50 (μM) ± SD (T. cruzi amastigote; [2]) | EC50 (T. cruzi trypomastigote) [µM] | CC50 at 48 h [1, 3] [µM] | EC50 (T. cruzi amastigote; [2]) [µM] | CC50 at 48 h [1] [µM] | EC50 (T. cruzi amastigote) [µM] | T. cruzi Trypomastigote EC50 (μM) ± SD (T. cruzi trypomastigote) |
| --- | --- | --- | --- | --- | --- | --- | --- |
| COC1C[C@@H](CC[C@@H]2[C@@H](C)CC=C3C(CO)(CO)CCC[C@@]32C)CO1 (relative stereo) [Compound 1, 15,16-epoxy-18,19-dihydroxy-16-methoxy-syn-labd-5-ene] | inactive | 20.1 ± 1.5 | > 200 | – | – | – | – |
| O=C(Cn1ccnc1[N+](=O)[O-])NCc1ccccc1 [Benznidazole, benznidazole, reference compound] | – | 18.7 ± 4.1 | > 200 | 5.5 ± 2.2 | – | – | – |
| C[C@H]1CC=C2C(CO)(CO)CCC[C@]2(C)[C@@H]1CC[C@H](CCO)COC(=O)/C=C/c1ccc(O)cc1 [Compound 2, gaudichaudol C] | inactive | 2.9 ± 1.5 | > 200 | – | – | – | – |
| C=C1C[C@@]23CC[C@H]4[C@@](C)(CCC[C@@]4(C)C(=O)O)[C@@H]2CC[C@@H]1C3 [Compound 3, Ent-kaur-16-en-19-oic acid] | inactive | 10.6 ± 4.4 | – | – | > 200 | – | – |
| COc1c(O)cc2oc(-c3ccc(O)cc3)cc(=O)c2c1O [Compound 4, Hispidulin] | – | – | – | – | > 200 | 12.8 ± 0.3 | no activity |
| COc1c(O)cc2oc(-c3ccc(O)c(O)c3)cc(=O)c2c1O [Compound 5, Eupafolin] | – | – | – | 2.7 ± 0.2 | – | – | no activity |
